Read-outs that look alike come from different tables or passages of the source.
How the values were obtained:
[1] = test system: Human tumor cell lines of a cancer screening panel; assay: Sulforhodamine B (SRB) cellular proliferation assay, cancer screening panel; assay type: cell-based; settings: 10 μM
Method: This example illustrates several in vitro experiments in predictive models of cancer to show the potential therapeutic utility of the disclosed compounds. Human tumor cell lines of a cancer screening panel were grown in RPMI 1640 medium containing 5% fetal bovine serum and 2 mM L-glutamine. Cells were inoculated into 96 well microtiter plates in 100 μL at plating densities ranging from 5,000 to 40,000 cells/well depending on the doubling time of individual cell lines. After cell inoculation, the microtiter plates were incubated at 37° C., 5% CO2, 95% air and 100% relative humidity for 24 h prior to addition of experimental drugs.
After 24 h, two plates of each cell line were fixed in situ with trichloroacetic acid (TCA), to represent a measurement of the cell population for each cell line at the time of drug addition (T=zero). Experimental drugs were solubilized in dimethyl sulfoxide at 400-fold the desired final maximum test concentration and stored frozen prior to use. […]
Following drug addition, the plates were incubated for an additional 48 h at 37° C., 5% CO2, 95% air, and 100% relative humidity. […] Bound stain was subsequently solubilized with 10 mM trizma base, and the absorbance was read on an automated plate reader at a wavelength of 515 nm. […] Using the seven absorbance measurements [time zero, (T=zero), control growth, (C), and test growth in the presence of drug at the five concentration levels (Ti)], the percentage growth was calculated at each of the drug concentrations levels.
Percentage growth inhibition was calculated as: [(Ti−Tzero)/(C−Tzero)]×100 for concentrations for which Ti>/=Tzero [(Ti−Tzero)/Tzero]×100 for concentrations for which Ti<Tzero. Three dose response parameters were calculated for each experimental agent. […] The drug concentration resulting in total growth inhibition (TGI) was calculated from Ti=Tzero. […] The same procedures were used to create FIGS. 19 and 20 except a single 10 μM data point was recorded for each cell line.

[2] = test system: large cell immunoblastic lymphoma cell lines (ATCC SR); assay: WST-8 cellular proliferation assay, ATCC SR lymphoma cells; assay type: cell-based; settings: Table 2; 1° fibroblasts versus ATCC SR cancer cells
Method: (§1) Assays were performed according to the manufactures instructions.

[3] = test system: Normal Human Adult Dermal Fibroblasts (ATCC PCS-201-012); assay: WST-8 cellular proliferation assay, primary dermal fibroblasts; assay type: cell-based; settings: for IC50: read-out: IC50 1° Fibroblasts, Table 4, EGFRi derivatives
Method: as §1

[4] = test system: THP-1 leukemia cells mixed with non-cancerous PBMC cells; assay: Flow cytometry drug uptake in mixed THP-1 / PBMC population; assay type: cell-based, human; settings: FIG. 21; THP-1 added to PBMC; 0.8 μM; 2-2.5 h; PE channel
Method: This example illustrates an in vitro experiment using predictive models of cancer to show the cellular specificity and potential therapeutic utility of the inventive compounds. The human leukemic cell line THP-1 was grown in RPMI 1640 medium with penicillin, streptomycin, and containing 25 mM Hepes, 0.05 mM 2-mercaptoethanol, 10% fetal bovine serum and 2 mM L-glutamine. Cells washed 2× with Gibco Life Sciences (Grand Island, N.Y.) AIM-V serum free medium and then were inoculated into 96 well microtiter plates in 100 μL at plating densities ranging from 25,000 to 100,000 cells/well. Five to ten million frozen peripheral blood mononuclear cells (PBMCs) (Astarte Biologics, LLC. (Redmond, Wash.)) in a solution of 10% DMSO, 2% human serum albumin in phosphate buffered saline were thawed and immediately washed in AIM-V media. An approximately equal number of these cells (25,000 to 100,000 cells/well) were added to the experimental plate. Doxorubicin was added to a final concentration of 0.8 μM. The microtiter plates were incubated at 37° C., 5% CO2, 95% air and 100% relative humidity for 2-2.5 h then drug uptake was quantified by flow cytometry for example using a BD FACSCanto II (San Jose, Calif.). Doxorubicin uptake was evaluated in the PE channel. Individual cell populations were identified by size, shape and through the use of dye labeled antibodies.

[5] = test system: THP-1 leukemia cells; assay: Flow cytometry uptake by THP-1 cells in presence of ISO-1; assay type: cell-based, human; settings: FIG. 22, 2 hrs at 37° C.
Method: This example illustrates an in vitro experiment using predictive models of cancer to show the cellular specificity and potential therapeutic utility of the inventive compounds. The human leukemic cell line THP-1 was grown AIM-V serum free medium Gibco Life Sciences (Grand Island, N.Y.). […] Then the washed THP-1 cells were added to the drug dilutions to start the experiment ˜75,000 cells per well. Test compounds were incubated 2 hrs at 37° C., then the plate was read by flow cytometry BD Canto 2 (80 μl˜25,000 cells). A population of Single Round “average” cells was selected by FSC and SSC—constituting %70 of the total cell population examined. The amount of doxorubicin uptake was evaluated for this population in the PE channel.

[6] = test system: large cell lung cancer cell lines (NCI-H460); assay: WST-8 cellular proliferation assay, NCI-H460 lung cancer cells; assay type: cell-based; settings: for IC50: Table 4, EGFRi derivatives, WST-8, read-out: IC50 Cancer Cells ATCC NCI-H460; for Selectivity: Table 4, 1° fibroblasts versus NCI-H460 cancer cells
[7] = FIG. 20, 14 diverse cancer cell lines

Structure (SMILES) | IC50 ([6]; Homo sapiens, NCI-H460) [µM] | inhibition of cancer cell growth (average % inhibition) [1, 7] | IC50 ([3]; Homo sapiens, Fibroblast) [µM] | Selectivity [6] | other results
Cc1ccc2oc(=O)n(Cc3ccc(OCC(=O)NCCC[C@@H]4O[C@@H]5O[C@@]6(C)CC[C@H]7[C@H](C)CC[C@@H]([C@H]4C)[C@@]57OO6)c(O)c3)c2c1 [compound 11, 2-(2-hydroxy-4-((5-methyl-2-oxobenzo[d]oxazol-3(2H)-yl)methyl)phenoxy)-N-(3-((3R,5aS,6R,8aS,9R,10S,12R,12aR)-3,6,9-trimethyldecahydro-12H-3,12-epoxy[1,2]dioxepino[4,3-i]isochromen-10-yl)propyl)acetamide] |  | substantial anti-cancer activity |  |  | 
COc1cccc2c1C(=O)c1c(O)c3c(c(O)c1C2=O)C[C@@](O)(C(=O)CO)C[C@@H]3O[C@H]1C[C@H](N)[C@H](O)[C@H](C)O1 [Doxorubicin] |  |  |  |  | Selectivity [2]: 26; IC50 1° Fibroblasts ([3]; Table 2, Doxorubicin derivatives): 0.185 ± 0.5 µM; preferential cellular uptake by cancer cells over non-cancerous cells [4]: little preference for the cancer cell line; inhibition of cellular uptake by ISO-1 [5]: not inhibited
COc1cc2ncnc(Nc3ccc(F)c(Cl)c3)c2cc1NC(=O)/C=C/CN1CCCCC1 [Docomitinib (PF-00299804), Docomitinib] |  |  |  | 0.08 | IC50 [3]: 0.89 µM; IC50 [6]: 10.6 µM
Cc1ccc2oc(=O)n(Cc3ccc(OCC(=O)O)c(O)c3)c2c1 [compound 7, (2-hydroxy-4-[(5-methyl-2-oxo-1,3-benzoxazol-3(2H)-yl)methyl]phenoxy)acetic acid] |  | little potency |  |  | inhibition of cancer cell growth (average % inhibition) ([1]; FIG. 19, 17 cancer cell lines): little if any potency

Now from value to compound, other results behind:

IC50 ([6]; Homo sapiens, NCI-H460) [µM] | Structure (SMILES) | inhibition of cancer cell growth (average % inhibition) [1, 7] | IC50 ([3]; Homo sapiens, Fibroblast) [µM] | Selectivity [6] | other results
12.6 | C#Cc1cccc(Nc2ncnc3cc(OCCOC)c(OCCOC)cc23)c1 [Tarceva ® (Erlotinib), Erlotinib] |  | 4.7 | 0.37 | 
3.6 | COc1cc2c(Nc3ccc(F)c(Cl)c3)ncnc2cc1OCCOCCNC(=O)COc1ccc(Cn2c(=O)oc3ccc(C)cc32)cc1O [RJS012_1] |  | 6.7 | 1.9 | 
